Data taken from ChEMBL document CHEMBL5543142, “Discovery of YFJ-36: Design, Synthesis, and Antibacterial Activities of Catechol-Conjugated β-Lactams against Gram-Negative Bacteria” (J Med Chem, 2024).
In brackets after ≈: the same amount, converted by molar mass.

Columns and labels:
[1] = tested on: Escherichia coli; experiment: Antibacterial activity against ESBL-producing multidrug-resistant Escherichia coli clinical isolate 14-1 assessed as inhibition of bacterial growth incubated for 18 to 20 hrs by two fold serial dilution assay; format: functional; conditions: time 18-20 hrs
[2] = tested on: Escherichia coli; experiment: Antibacterial activity against ESBL-producing multidrug-resistant Escherichia coli clinical isolate 14-2 assessed as inhibition of bacterial growth incubated for 18 to 20 hrs by two fold serial dilution assay; format: functional; conditions: time 18-20 hrs
[3] = tested on: Escherichia coli; experiment: Antibacterial activity against ESBL-producing multidrug-resistant Escherichia coli clinical isolate 14-4 assessed as inhibition of bacterial growth incubated for 18 to 20 hrs by two fold serial dilution assay; format: functional; conditions: time 18-20 hrs
[4] = tested on: Klebsiella pneumoniae; experiment: Antibacterial activity against KPC-2 producing multidrug-resistant Klebsiella pneumoniae clinical isolate 15-1 assessed as inhibition of bacterial growth incubated for 18 to 20 hrs by two fold serial dilution assay; format: functional; conditions: time 18-20 hrs
[5] = tested on: Klebsiella pneumoniae; experiment: Antibacterial activity against KPC-2 producing multidrug-resistant Klebsiella pneumoniae clinical isolate 15-2 assessed as inhibition of bacterial growth incubated for 18 to 20 hrs by two fold serial dilution assay; format: functional; conditions: time 18-20 hrs
[6] = tested on: Klebsiella pneumoniae; experiment: Antibacterial activity against KPC-2 producing multidrug-resistant Klebsiella pneumoniae clinical isolate 15-5 assessed as inhibition of bacterial growth incubated for 18 to 20 hrs by two fold serial dilution assay; format: functional; conditions: time 18-20 hrs
[7] = tested on: Escherichia coli; experiment: Antibacterial activity against Escherichia coli ATCC35218 assessed as inhibition of bacterial growth incubated for 18 to 20 hrs by two fold serial dilution assay; format: functional; conditions: time 18-20 hrs
[8] = tested on: Pseudomonas aeruginosa; experiment: Antibacterial activity against IMP-4 producing multidrug-resistant Pseudomonas aeruginosa clinical isolate 17-13 assessed as inhibition of bacterial growth incubated for 18 to 20 hrs by two fold serial dilution assay; format: functional; conditions: time 18-20 hrs
[9] = tested on: Pseudomonas aeruginosa; experiment: Antibacterial activity against IMP-4 producing multidrug-resistant Pseudomonas aeruginosa clinical isolate 17-1 assessed as inhibition of bacterial growth incubated for 18 to 20 hrs by two fold serial dilution assay; format: functional; conditions: time 18-20 hrs
[10] = tested on: Pseudomonas aeruginosa; experiment: Antibacterial activity against IMP-4 producing multidrug-resistant Pseudomonas aeruginosa clinical isolate 19-17 assessed as inhibition of bacterial growth incubated for 18 to 20 hrs by two fold serial dilution assay; format: functional; conditions: time 18-20 hrs
[11] = tested on: Acinetobacter baumannii; experiment: Antibacterial activity against OXA-23 producing multidrug-resistant Acinetobacter baumannii clinical isolate 17-2 assessed as inhibition of bacterial growth incubated for 18 to 20 hrs by two fold serial dilution assay; format: functional; conditions: time 18-20 hrs
[12] = tested on: Acinetobacter baumannii; experiment: Antibacterial activity against OXA-23 producing multidrug-resistant Acinetobacter baumannii clinical isolate 17-3 assessed as inhibition of bacterial growth incubated for 18 to 20 hrs by two fold serial dilution assay; format: functional; conditions: time 18-20 hrs
[13] = tested on: Pseudomonas aeruginosa; experiment: Antibacterial activity against IMP-4 producing multidrug-resistant Pseudomonas aeruginosa clinical isolate 19-5 assessed as inhibition of bacterial growth incubated for 18 to 20 hrs by two fold serial dilution assay; format: functional; conditions: time 18-20 hrs
[14] = tested on: Pseudomonas aeruginosa; experiment: Antibacterial activity against IMP-4 producing multidrug-resistant Pseudomonas aeruginosa clinical isolate 19-1 assessed as inhibition of bacterial growth incubated for 18 to 20 hrs by two fold serial dilution assay; format: functional; conditions: time 18-20 hrs
[15] = tested on: Acinetobacter baumannii; experiment: Antibacterial activity against OXA-23 producing multidrug-resistant Acinetobacter baumannii clinical isolate 17-5 assessed as inhibition of bacterial growth incubated for 18 to 20 hrs by two fold serial dilution assay; format: functional; conditions: time 18-20 hrs
[16] = tested on: Acinetobacter baumannii; experiment: Antibacterial activity against OXA-23 producing multidrug-resistant Acinetobacter baumannii clinical isolate 17-6 assessed as inhibition of bacterial growth incubated for 18 to 20 hrs by two fold serial dilution assay; format: functional; conditions: time 18-20 hrs
[17] = tested on: Acinetobacter baumannii; experiment: Antibacterial activity against OXA-23 producing multidrug-resistant Acinetobacter baumannii clinical isolate 17-7 assessed as inhibition of bacterial growth incubated for 18 to 20 hrs by two fold serial dilution assay; format: functional; conditions: time 18-20 hrs
[18] = tested on: Acinetobacter baumannii; experiment: Antibacterial activity against OXA-23 producing multidrug-resistant Acinetobacter baumannii clinical isolate 17-8 assessed as inhibition of bacterial growth incubated for 18 to 20 hrs by two fold serial dilution assay; format: functional; conditions: time 18-20 hrs
[19] = tested on: Klebsiella pneumoniae; experiment: Antibacterial activity against KPC-2 producing multidrug-resistant Klebsiella pneumoniae clinical isolate 15-3 assessed as inhibition of bacterial growth incubated for 18 to 20 hrs by two fold serial dilution assay; format: functional; conditions: time 18-20 hrs
[20] = tested on: Escherichia coli; experiment: Antibacterial activity against Escherichia coli NCTC-13353 assessed as inhibition of bacterial growth incubated for 18 to 20 hrs in presence of CAMHB medium by two fold serial dilution assay; format: functional; conditions: time 18-20 hrs
[21] = tested on: Escherichia coli; experiment: Antibacterial activity against Escherichia coli ATCC-35218 assessed as inhibition of bacterial growth incubated for 18 to 20 hrs in presence of CAMHB medium by two fold serial dilution assay; format: functional; conditions: time 18-20 hrs
[22] = tested on: Klebsiella pneumoniae; experiment: Antibacterial activity against Klebsiella pneumoniae ATCC BAA-1898 assessed as inhibition of bacterial growth incubated for 18 to 20 hrs in presence of CAMHB medium by two fold serial dilution assay; format: functional; conditions: time 18-20 hrs
[23] = tested on: Escherichia coli; experiment: Antibacterial activity against Escherichia coli NCTC-13353 assessed as inhibition of bacterial growth incubated for 18 to 20 hrs in presence of iron-depleted CAMHB medium by two fold serial dilution assay; format: functional; conditions: time 18-20 hrs
[24] = tested on: Escherichia coli; experiment: Antibacterial activity against Escherichia coli ATCC-35218 assessed as inhibition of bacterial growth incubated for 18 to 20 hrs in presence of iron-depleted CAMHB medium by two fold serial dilution assay; format: functional; conditions: time 18-20 hrs
[25] = tested on: Klebsiella pneumoniae; experiment: Antibacterial activity against Klebsiella pneumoniae ATCC BAA-1898 assessed as inhibition of bacterial growth incubated for 18 to 20 hrs in presence of iron-depleted CAMHB medium by two fold serial dilution assay; format: functional; conditions: time 18-20 hrs
[26] = AUC (0 to infinity) in ICR mouse at 20 mg/kg,iv administration measured upto 6 hrs by LC-MS/MS analysis; format: ADME, organism-based; conditions: in vivo
[27] = Clearance in ICR mouse at 20 mg/kg,iv administration measured upto 6 hrs by LC-MS/MS analysis; format: ADME, organism-based; conditions: in vivo
[28] = Half life in ICR mouse at 20 mg/kg,iv administration measured upto 6 hrs by LC-MS/MS analysis; format: ADME, organism-based; conditions: in vivo
[29] = MRT in ICR mouse at 20 mg/kg,iv administration measured upto 6 hrs by LC-MS/MS analysis; format: ADME, organism-based; conditions: in vivo
[30] = Volume of distribution at steady state in ICR mouse at 20 mg/kg,iv administration measured upto 6 hrs by LC-MS/MS analysis; format: ADME, organism-based; conditions: in vivo, read-out: Vdss
[31] = Plasma protein binding in mouse incubated for 35 mins by LC-MS/MS analysis; format: ADME, cell-free; conditions: read-out: PPB (converted)
[32] = target: hERG (KCNH2) (Homo sapiens, UniProt Q12809); experiment: Inhibition of hERG at 40 uM by whole cell Qpatch assay relative to control; format: toxicity
[33] = target: Voltage-gated inwardly rectifying potassium channel KCNH2 (Homo sapiens, UniProt Q12809); experiment: Inhibition of hERG by whole cell Qpatch assay; format: toxicity
[34] = tested on: Pseudomonas aeruginosa; experiment: Antibacterial activity against Pseudomonas aeruginosa ATCC 27853 assessed as inhibition of bacterial growth incubated for 18 to 20 hrs by two fold serial dilution assay; format: functional; conditions: time 18-20 hrs
[35] = tested on: Acinetobacter baumannii; experiment: Antibacterial activity against OXA-23 producing multidrug-resistant Acinetobacter baumannii clinical isolate 15-3 assessed as inhibition of bacterial growth incubated for 18 to 20 hrs by two fold serial dilution assay; format: functional; conditions: time 18-20 hrs
[36] = tested on: Acinetobacter baumannii; experiment: Antibacterial activity against OXA-23 producing multidrug-resistant Acinetobacter baumannii clinical isolate 15-4 assessed as inhibition of bacterial growth incubated for 18 to 20 hrs by two fold serial dilution assay; format: functional; conditions: time 18-20 hrs
[37] = tested on: Acinetobacter baumannii; experiment: Antibacterial activity against OXA-23 producing multidrug-resistant Acinetobacter baumannii clinical isolate 15-5 assessed as inhibition of bacterial growth incubated for 18 to 20 hrs by two fold serial dilution assay; format: functional; conditions: time 18-20 hrs
[38] = tested on: Pseudomonas aeruginosa; experiment: Antibacterial activity against IMP-4 producing multidrug-resistant Pseudomonas aeruginosa clinical isolate 15-1 assessed as inhibition of bacterial growth incubated for 18 to 20 hrs by two fold serial dilution assay; format: functional; conditions: time 18-20 hrs
[39] = tested on: Pseudomonas aeruginosa; experiment: Antibacterial activity against IMP-4 producing multidrug-resistant Pseudomonas aeruginosa clinical isolate 15-5 assessed as inhibition of bacterial growth incubated for 18 to 20 hrs by two fold serial dilution assay; format: functional; conditions: time 18-20 hrs
[40] = tested on: Escherichia coli; experiment: Antibacterial activity against Escherichia coli ATCC-35218 infected in ICR mouse assessed as inhibition of bacterial growth at iv after 1 and 5 hour of post-infection measured after 7 days; format: functional; conditions: ATCC-35218, 168 h, time 7 day
[41] = tested on: Acinetobacter baumannii; experiment: Antibacterial activity against multidrug-resistant Acinetobacter baumannii BM-2023-D2-010 infected in ICR mouse assessed as inhibition of bacterial growth at iv after 1 and 5 hour of post-infection measured after 7 days; format: functional; conditions: BM-2023-D2-010, 168 h, time 7 day
[42] = tested on: Acinetobacter baumannii; experiment: Antibacterial activity against multidrug-resistant Acinetobacter baumannii BM-2023-D2-010 infected in ICR mouse assessed as survival rate at 40 mg/kg,iv after 1 and 5 hour of post-infection measured after 7 days relative to control; format: functional; conditions: time 7 day

Chain of Voltage-gated inwardly rectifying potassium channel KCNH2 (Q12809 whole entry): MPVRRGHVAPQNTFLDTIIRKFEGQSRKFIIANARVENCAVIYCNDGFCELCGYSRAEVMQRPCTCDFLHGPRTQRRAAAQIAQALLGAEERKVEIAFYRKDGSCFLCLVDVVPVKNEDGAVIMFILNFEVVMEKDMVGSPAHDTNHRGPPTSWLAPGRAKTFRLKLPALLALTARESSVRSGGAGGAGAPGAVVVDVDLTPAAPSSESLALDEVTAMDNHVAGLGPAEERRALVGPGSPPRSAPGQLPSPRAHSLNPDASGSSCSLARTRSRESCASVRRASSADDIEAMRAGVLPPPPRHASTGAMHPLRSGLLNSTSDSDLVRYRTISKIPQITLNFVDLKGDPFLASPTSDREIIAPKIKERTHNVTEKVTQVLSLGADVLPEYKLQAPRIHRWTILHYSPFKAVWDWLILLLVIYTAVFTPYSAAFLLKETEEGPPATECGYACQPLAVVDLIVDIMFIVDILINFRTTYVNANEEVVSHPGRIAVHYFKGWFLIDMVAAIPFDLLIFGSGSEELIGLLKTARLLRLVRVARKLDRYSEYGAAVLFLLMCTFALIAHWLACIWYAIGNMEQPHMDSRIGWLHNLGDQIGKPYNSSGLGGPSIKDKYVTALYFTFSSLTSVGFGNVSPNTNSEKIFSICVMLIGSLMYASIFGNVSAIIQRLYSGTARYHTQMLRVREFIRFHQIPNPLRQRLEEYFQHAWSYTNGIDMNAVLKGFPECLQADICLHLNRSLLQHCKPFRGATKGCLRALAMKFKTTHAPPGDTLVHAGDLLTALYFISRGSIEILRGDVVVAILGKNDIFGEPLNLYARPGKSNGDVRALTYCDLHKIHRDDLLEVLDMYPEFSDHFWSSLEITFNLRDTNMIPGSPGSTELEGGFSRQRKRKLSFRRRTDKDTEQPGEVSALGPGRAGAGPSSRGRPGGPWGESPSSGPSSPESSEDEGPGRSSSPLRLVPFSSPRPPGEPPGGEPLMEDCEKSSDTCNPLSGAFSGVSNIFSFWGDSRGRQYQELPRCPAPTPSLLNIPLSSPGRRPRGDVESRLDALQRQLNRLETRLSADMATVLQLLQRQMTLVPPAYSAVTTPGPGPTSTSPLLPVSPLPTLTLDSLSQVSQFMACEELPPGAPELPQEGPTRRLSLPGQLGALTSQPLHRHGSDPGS
Chain of hERG (KCNH2) (Q12809 whole entry): as above

Structure (SMILES)	MIC [1]	MIC [2]	MIC [3]	MIC [4]	MIC [5]	MIC [6]	MIC [7]	MIC [8]	MIC [9]	MIC [10]	MIC [11]	MIC [13]	MIC [14]	MIC [15]	MIC [16]	MIC [17]	MIC [18]	MIC [19]	MIC [20]	other results
C[C@@](O/N=C(\C(=O)N[C@@H]1C(=O)N2C(C(=O)O)=C(CSCCNC(=O)c3ccc(O)c(O)c3Cl)CS[C@H]12)c1nc(N)sc1Cl)(C(=O)O)C(F)(F)F.O=C(O)C(F)(F)F	0.06 µg/mL	0.5 µg/mL	≤ 0.03 µg/mL	0.25 µg/mL	0.5 µg/mL	0.125 µg/mL	0.06 µg/mL	0.125 µg/mL	8 µg/mL	0.06 µg/mL	0.06 µg/mL	0.25 µg/mL	1 µg/mL	0.125 µg/mL	0.5 µg/mL	0.5 µg/mL	0.125 µg/mL	0.5 µg/mL	0.5 µg/mL	MIC [12]: 0.5 µg/mL; MIC [21]: 0.5 µg/mL; MIC [22]: 16 µg/mL; MIC [23]: 0.25 µg/mL; MIC [24]: ≤ 0.03 µg/mL; MIC [25]: 4 µg/mL; AUC(0-inf) [26]: 968 ng·h/mL; clearance [27]: 397 mL/min/kg; half-life [28]: 18 min; MRT [29]: 18 min; Vd [30]: 7.74 L/kg; fraction unbound at 35 min [31]: 0.066; inhibition at 40 µM [32]: 40.5%; IC50 [33]: > 40 µM
C[C@@H](O)[C@H]1C(=O)N2C(C(=O)O)=C(S[C@@H]3CN[C@H](C(=O)N(C)C)C3)[C@H](C)[C@H]12 [MEROPENEM]	0.125 µg/mL (≈ 0.326 µM)	2 µg/mL (≈ 5.22 µM)	4 µg/mL (≈ 10.4 µM)	> 64 µg/mL	> 64 µg/mL	> 64 µg/mL	0.06 µg/mL (≈ 0.156 µM)	16 µg/mL (≈ 41.7 µM)	4 µg/mL (≈ 10.4 µM)	32 µg/mL (≈ 83.4 µM)	> 64 µg/mL	16 µg/mL (≈ 41.7 µM)	0.5 µg/mL (≈ 1.3 µM)	> 64 µg/mL	> 64 µg/mL	> 64 µg/mL	> 64 µg/mL	> 64 µg/mL	32 µg/mL	MIC [34]: 1 µg/mL (≈ 2.61 µM); MIC [35]: 32 µg/mL (≈ 83.4 µM); MIC [36]: 32 µg/mL (≈ 83.4 µM); MIC [37]: 32 µg/mL (≈ 83.4 µM); MIC [38]: 32 µg/mL (≈ 83.4 µM); MIC [39]: 16 µg/mL (≈ 41.7 µM); MIC [40]: ≤ 0.03 µg/mL; MIC [41]: > 64 µg/mL; Activity [42]: 0%
